Laboratory results taken from publication PMC9387934, “Randomized single oral dose phase 1 study of safety, tolerability, and pharmacokinetics of Iminosugar UV-4 Hydrochloride (UV-4B) in healthy subjects” (PLoS Neglected Tropical Diseases, 2022).
Counter-ions that a name gives are not always drawn.

Assay: Phase 1a single ascending dose study: UV-4 in pooled urine, urinary recovery and renal clearance
Format: in vivo, human
Conditions: for CL renal: human, po; for Cumulative Amount Ae(0-last): corresponds to Ae(0-48); for Cumulative Percent fe(0-last): corresponds to fe(0-48)
Procedure: Serial blood samples were collected at pre-dose (0 hour) and 0.5, 1, 1.5, 2, 2.5, 3, 4, 6, 9, 12, 18, 24, 36, and 48 hours post-dose for assessment of UV-4 concentrations in plasma. Pooled urine samples were collected at pre-dose (-12 to 0 hour) and from 0 to 6, 6 to 12, 12 to 24, and 24 to 48 hours post-dose for assessment of UV-4 concentrations in urine. Plasma and urine concentrations of UV-4 were determined by means of validated, sensitive, and specific high-performance liquid chromatography/tandem mass spectrometric (LC-MS/MS) assays. UV-4 plasma and urine concentrations and PK parameters were listed and summarized by dose, as appropriate. Only the 48 subjects who received active investigational product were included in the PK analysis population.
8.2.3 Specimen Preparation, Handling, and Shipping
8.2.3.1 Instructions for Specimen Preparation, Handling, and Storage
The collected PK blood samples (2 mL) will be placed on ice after blood draw, and within 1 hour centrifuged at room temperature at approximately 3000 revolutions per minute for 15 minutes. Plasma will then be harvested and split into 4 aliquots of approximately 250 μ L and stored frozen at -20°C until shipped.
Urine samples (approximately 10 mL) for determination of UV-4 concentrations in urine will be taken from the total volume provided during each collection period. The total volume of each urine collection will be recorded along with the start/stop time for each urine collection interval.
Analysis of plasma and urine for UV-4 will be performed by the qualified bioanalytical laboratory, Quintiles Bioservices, Inc., Ithaca, New York 14950. Instructions for the proper preparation, handling, storage and shipping of specimens will be provided separately in a study-specific laboratory manual (i.e., Biopacket).
8.2.3.2 Specimen Shipment […]
The following single-dose urine PK parameters will be estimated from the UV-4 urine concentration-time data collected, as appropriate:
Ae Amount of UV-4 excreted in urine unchanged, calculated for each collection interval and cumulatively across intervals fe Fraction of UV-4 excreted in urine unchanged, calculated for each collection interval and cumulatively across intervals […]
Additional UV-4 PK parameters may be calculated at the discretion of the […]
Plasma concentrations and plasma and urine PK parameters will be summarized by treatment using descriptive statistics, as appropriate. Figures for the arithmetic mean (and SD) concentration-time data will be presented for all doses on both a linear and semi-logarithmic scale. Individual concentration-time data will be graphically presented on linear and semi-logarithmic scales. Scatter plots of individual and geometric mean PK parameters versus dose will be presented. Additional graphical presentations of PK data may be added at the discretion of the PK analyst.
Dose proportionality of Cmax, AUC(0-last), and AUC(0-inf) will be assessed graphically and statistically using the power model approach with the logarithm of PK parameters AUC(0-inf) and Cmax as the dependent variables and the logarithm of the dose as the independent variable: ([AUC(0-inf), AUC(0-last), or Cmax]=α *doseβ).
11.4.7 Deviation from Original Analysis Plan
Deviations from the formal statistical analysis plan will be noted in the final Clinical Study

[1] = urine, Cohort 1, 3 mg single oral dose, Ar Mean
[2] = urine, Cohort 1, 3 mg single oral dose, Median
[3] = urine, Cohort 2, 10 mg single oral dose, Ar Mean
[4] = urine, Cohort 2, 10 mg single oral dose, Median
[5] = urine, Cohort 3, 30 mg single oral dose, Ar Mean
[6] = urine, Cohort 3, 30 mg single oral dose, Median
[7] = urine, Cohort 4, 90 mg single oral dose, Ar Mean
[8] = urine, Cohort 4, 90 mg single oral dose, Median

With `COCCCCCCCCCN1C[C@H](O)[C@@H](O)[C@H](O)[C@H]1CO` [UV-4B, N-(9’-methoxynonyl)-1-deoxynojirimycin hydrochloride] the “fe(0-last)” value (3 mg single oral dose, Ar Mean) was 39.8%, the CL renal (both sexes, urine and plasma, 3 mg, 3 mg single oral dose, Ar Mean) was 242 mL/min and the CL renal (both sexes, urine and plasma, 3 mg, 3 mg single oral dose, Geo Mean) was 238 mL/min. It also gave a CL renal (both sexes, urine and plasma, 1000 mg, 1000 mg single oral dose, Ar Mean) of 198 mL/min, a CL renal (both sexes, urine and plasma, 1000 mg, 1000 mg single oral dose, Geo Mean) of 195 mL/min and a CL renal (both sexes, urine, 10 mg, 10 mg single oral dose, Geo Mean) of 190 mL/min. For the same molecule, the CL renal (both sexes, urine, 30 mg, 30 mg single oral dose, Ar Mean) was 210 mL/min, the CL renal (both sexes, urine, 30 mg, 30 mg single oral dose, Geo Mean) was 208 mL/min and the CL renal (both sexes, urine, 90 mg, 90 mg single oral dose, Ar Mean) was 228 mL/min. The CL renal (both sexes, urine, 90 mg, 90 mg single oral dose, Geo Mean) was 227 mL/min, the CL renal (both sexes, urine, 180 mg, 180 mg single oral dose, Ar Mean) was 233 mL/min and the CL renal (both sexes, urine, 180 mg, 180 mg single oral dose, Geo Mean) was 232 mL/min. It also gave a CL renal (both sexes, urine, 360 mg, 360 mg single oral dose, Ar Mean) of 235 mL/min, a CL renal (both sexes, urine, 360 mg, 360 mg single oral dose, Geo Mean) of 228 mL/min and a CL renal (both sexes, urine, 720 mg, 720 mg single oral dose, Ar Mean) of 185 mL/min. The CL renal (both sexes, urine, 720 mg, 720 mg single oral dose, Geo Mean) was 182 mL/min, the CL renal (urine, 10 mg, 10 mg single oral dose, Ar Mean) was 195 mL/min and the “By-Interval Amount Ae(0-6)” value [1] was 0.607 mg. For the same molecule, the “By-Interval Amount Ae(6-12)” value [1] was 0.215 mg, the “By-Interval Amount Ae(12-24)” value [1] was 0.202 mg and the “By-Interval Amount Ae(24-48)” value [1] was 0.170 mg. For the same molecule, the “Cumulative Amount Ae(0-12)” value [1] was 0.822 mg, the “Cumulative Amount Ae(0-24)” value [1] was 1.02 mg and the “Cumulative Amount Ae(0-last)” value [1] was 1.19 mg. The “By-Interval Amount Ae(0-6)” value [2] was 0.624 mg, the “By-Interval Amount Ae(6-12)” value [2] was 0.216 mg and the “By-Interval Amount Ae(12-24)” value [2] was 0.230 mg. The “By-Interval Amount Ae(24-48)” value [2] was 0.173 mg, the “By-Interval Percent fe(0-6)” value [2] was 20.8% and the “By-Interval Percent fe(6-12)” value [2] was 7.19%. The “By-Interval Percent fe(12-24)” value [2] was 7.65%, the “By-Interval Percent fe(24-48)” value [2] was 5.75% and the “Cumulative Amount Ae(0-12)” value [2] was 0.892 mg. The “Cumulative Amount Ae(0-24)” value [2] was 1.08 mg, the “Cumulative Percent fe(0-12)” value [2] was 29.7% and the “Cumulative Percent fe(0-24)” value [2] was 36.0%. For the same molecule, the “Cumulative Amount Ae(0-last)” value [2] was 1.23 mg, the “Cumulative Percent fe(0-last)” value [2] was 40.9% and the “By-Interval Amount Ae(0-6)” value [3] was 2.67 mg. For the same molecule, the “By-Interval Amount Ae(6-12)” value [3] was 0.859 mg, the “By-Interval Amount Ae(12-24)” value [3] was 0.608 mg and the “By-Interval Amount Ae(24-48)” value [3] was 0.503 mg. The “By-Interval Percent fe(0-6)” value [3] was 26.7%, the “By-Interval Percent fe(6-12)” value [3] was 8.59% and the “By-Interval Percent fe(12-24)” value [3] was 6.08%. The “By-Interval Percent fe(24-48)” value [3] was 5.03%, the “Cumulative Amount Ae(0-12)” value [3] was 3.53 mg and the “Cumulative Amount Ae(0-24)” value [3] was 4.13 mg. For the same molecule, the “Cumulative Percent fe(0-12)” value [3] was 35.3%, the “Cumulative Percent fe(0-24)” value [3] was 41.3% and the “Cumulative Amount Ae(0-last)” value [3] was 4.64 mg. For the same molecule, the “Cumulative Percent fe(0-last)” value [3] was 46.4%, the “By-Interval Amount Ae(0-6)” value [4] was 2.77 mg and the “By-Interval Amount Ae(6-12)” value [4] was 0.883 mg. The “By-Interval Amount Ae(12-24)” value [4] was 0.635 mg, the “By-Interval Amount Ae(24-48)” value [4] was 0.503 mg and the “By-Interval Percent fe(0-6)” value [4] was 27.7%. For the same molecule, the “By-Interval Percent fe(6-12)” value [4] was 8.83%, the “By-Interval Percent fe(12-24)” value [4] was 6.35% and the “By-Interval Percent fe(24-48)” value [4] was 5.03%. For the same molecule, the “Cumulative Amount Ae(0-12)” value [4] was 3.71 mg, the “Cumulative Amount Ae(0-24)” value [4] was 4.34 mg and the “Cumulative Percent fe(0-12)” value [4] was 37.1%. For the same molecule, the “Cumulative Percent fe(0-24)” value [4] was 43.4%, the “Cumulative Amount Ae(0-last)” value [4] was 4.82 mg and the “Cumulative Percent fe(0-last)” value [4] was 48.2%. For the same molecule, the “By-Interval Amount Ae(0-6)” value [5] was 10.6 mg, the “By-Interval Amount Ae(6-12)” value [5] was 2.45 mg and the “By-Interval Amount Ae(12-24)” value [5] was 1.61 mg. For the same molecule, the “By-Interval Amount Ae(24-48)” value [5] was 0.887 mg, the “By-Interval Percent fe(0-6)” value [5] was 35.3% and the “By-Interval Percent fe(6-12)” value [5] was 8.16%. The “By-Interval Percent fe(12-24)” value [5] was 5.36%, the “By-Interval Percent fe(24-48)” value [5] was 2.96% and the “Cumulative Amount Ae(0-12)” value [5] was 13.0 mg. For the same molecule, the “Cumulative Amount Ae(0-24)” value [5] was 14.6 mg, the “Cumulative Percent fe(0-12)” value [5] was 43.4% and the “Cumulative Percent fe(0-24)” value [5] was 48.8%. For the same molecule, the “Cumulative Amount Ae(0-last)” value [5] was 15.5 mg, the “Cumulative Percent fe(0-last)” value [5] was 51.7% and the “By-Interval Amount Ae(0-6)” value [6] was 10.5 mg. The “By-Interval Amount Ae(6-12)” value [6] was 2.47 mg, the “By-Interval Amount Ae(12-24)” value [6] was 1.55 mg and the “By-Interval Amount Ae(24-48)” value [6] was 0.96 mg. The “By-Interval Percent fe(0-6)” value [6] was 34.9%, the “By-Interval Percent fe(6-12)” value [6] was 8.24% and the “By-Interval Percent fe(12-24)” value [6] was 5.14%. The “By-Interval Percent fe(24-48)” value [6] was 3.20%, the “Cumulative Amount Ae(0-12)” value [6] was 12.9 mg and the “Cumulative Amount Ae(0-24)” value [6] was 14.6 mg. For the same molecule, the “Cumulative Percent fe(0-12)” value [6] was 43.0%, the “Cumulative Percent fe(0-24)” value [6] was 48.7% and the “Cumulative Amount Ae(0-last)” value [6] was 15.5 mg. The “Cumulative Percent fe(0-last)” value [6] was 51.7%, the “By-Interval Amount Ae(0-6)” value [7] was 38.1 mg and the “By-Interval Amount Ae(6-12)” value [7] was 6.05 mg. The “By-Interval Amount Ae(12-24)” value [7] was 3.89 mg, the “By-Interval Amount Ae(24-48)” value [7] was 1.61 mg and the “By-Interval Percent fe(0-6)” value [7] was 42.2%. The “By-Interval Percent fe(6-12)” value [7] was 6.72%, the “By-Interval Percent fe(12-24)” value [7] was 4.32% and the “By-Interval Percent fe(24-48)” value [7] was 1.79%. The “Cumulative Amount Ae(0-12)” value [7] was 44.1 mg, the “Cumulative Amount Ae(0-24)” value [7] was 48.0 mg and the “Cumulative Percent fe(0-12)” value [7] was 49.0%. For the same molecule, the “Cumulative Percent fe(0-24)” value [7] was 53.3%, the “Cumulative Amount Ae(0-last)” value [7] was 49.6 mg and the “Cumulative Percent fe(0-last)” value [7] was 55.1%. The “By-Interval Amount Ae(0-6)” value [8] was 39.3 mg, the “By-Interval Amount Ae(6-12)” value [8] was 6.36 mg and the “By-Interval Amount Ae(12-24)” value [8] was 4.01 mg. For the same molecule, the “By-Interval Amount Ae(24-48)” value [8] was 1.50 mg.
